The source of these data is patent publication US20210254056A1, “IDENTIFICATION AND TARGETED MODULATION OF GENE SIGNALING NETWORKS” (CAMP4 THERAPEUTICS CORPORATION, priority 2017, published 2021).

Data set [1] deals with primary human hepatocytes. As to the kind of experiment: RNA-seq of primary human hepatocytes treated with 39 small molecules (pilot and validation). The settings on record: for significant modulation of gene expression: RNA-seq, p-value≤0.05, primary human hepatocytes, the modulated genes are listed in the block; for Number (#) of genes having significantly changed expression: pilot RNA-seq study of Example 2, significance: FPKM≥0.5, log 2(fold change)≥1, q-value ≤0.05.

Data set [2] concerns primary human hepatocytes.
Data set [3] relates to Hematopoietic progenitor CD34+ cells. As to the kind of experiment: qRT-PCR after inducible (pTRIPZ) shRNA knockdown in CD34+ cells. The class given is cell-based, human. The settings on record: for RQ, BAG1: relative quantification of BAG1 expression vs puro_shNT; for RQ, BAG1 / RQ, BAX / RQ, GATA1 / RQ, GATA2 / RQ, MDM2: pTRIPZ dox inducible shRNA, B-Actin internal control, Table 81; for RQ, BAX: relative quantification of BAX expression vs puro_shNT; for RQ, GATA1: relative quantification of GATA1 expression vs puro_shNT; for RQ, GATA2: relative quantification of GATA2 expression vs puro_shNT; for RQ, HBB: relative quantification of HBB expression vs puro_shNT; for RQ, HBB / RQ, RPL11 / RQ, RPS19 / RQ, p21 / RQ, p53: inducible pTRIPZ shRNA, CD34+ cells, B-ACTIN, Table 80; for RQ, MDM2: relative quantification of MDM2 expression vs puro_shNT; for RQ, RPL11: relative quantification of RPL11 expression vs puro_shNT; for RQ, RPS19: relative quantification of RPS19 expression vs puro_shNT; for RQ, p21: relative quantification of p21 expression vs puro_shNT; for RQ, p53: relative quantification of p53 expression vs puro_shNT. The procedure:
Conditionally immortalized cord blood CD34+ cells were transduced with the shRNA lentiviruses using the retronectin-transduction protocol (Clontech). Puromycin selection was performed 24-48 hours post-transduction. Cells were counted to monitor cell viability. After 12 days, which allowed for a large biomass, knockdown efficiency was analyzed. qRT-PCR was used to identify changes in mRNA, and Western blot was used to determine levels of protein depletion.
For RNA extraction, 1×10^6 cells were harvested in 500 μL of TRIZOL reagent (Thermo Scientific), and incubated for 5 minutes at room temperature. Then, 100 μL of chloroform was added to the cells, and the mixture was vortexed and then centrifuged at 12,000× gravity for 15 minutes. The aqueous phase was transferred to fresh tubes and one volume of 70% ethanol was added. The TRIZOL Plus RNA purification Kit (Thermo Scientific) was used for the remaining extraction protocol according to the manufacturer's instructions. For the conversion of RNA to cDNA the High Capacity cDNA RT kit (Thermo Scientific) was used according to the manufacturer's instructions. The cDNA was analyzed with qRT-PCR to determine the fold change of knockdown cells using Taqman Fast PCR mix and Applied Biosystems probes (Thermo Scientific).
shRNAs targeting RPS19, p53, or RPL11 were delivered to normal cord blood erythroblast cells using either the pLKO (constitutive) and pTRIPZ (inducible) plasmids described in Example 1. The mRNA expression of the p53 pathway proteins; progenitor factor GATA2; and differentiation factors HBB and GATA1 were measured by qRT-PCR. Cells not transduced with a shRNA as well as cells transduced with a non-targeting shRNA served as controls.
Hematopoietic progenitor CD34^+ cells were transduced with the pTRIPZ inducible lentiviral plasmids containing p53_sh1, puro_shNT, RPL11_1, RPL11_2, RPS19_1, or RPS19_2.
The relative expression of GATA1, GATA2, MDM2, BAX, and BAG1 were also analyzed in cells transduced with a pTRIPZ dox inducible shRNA. B-Actin was used as an internal control.

On to `C[C@H](CS)C(=O)N1CCC[C@H]1C(=O)O` [MT-835, Captopril], for which, in data set [1], the “significant modulation of gene expression” value (shortened to “significant modulation”) was “significantly (p-value≤0.05) modulate” and the “Number (#) of genes having significantly changed expression” value is given as 12. For the same compound, in data set [2], the “Log2 fold changes in gene expression: CYP2C19” value (from here on “Log2 fold changes … CYP2C19”) is listed as 0.07 and the “Log2 fold changes in gene expression: CYP3A4” value (shortened to “Log2 fold changes … CYP3A4”) came to 0.02.

For “RPS19_1 (guide TAGAACCAGTTCTCATCGTA; chemistry not fully specified; listed as Homo sapiens)”, in data set [3], the “RQ, BAG1” value is 1.16; the “RQ, BAX” value was found to be 1.57; the “RQ, GATA1” value is 0.67; the “RQ, GATA2” value turned out to be 1.53. In data set [3], the “RQ, HBB” value stood at 0.50; the “RQ, MDM2” value worked out at 2.72; the “RQ, RPL11” value came to 1.90; the “RQ, RPS19” value was determined as 0.47. In addition, in data set [3], the “RQ, p21” value is listed as 5.87 and the “RQ, p53” value is recorded as 1.66.

As to `C#C[C@]1(O)CC[C@H]2[C@@H]3CCC4=Cc5oncc5C[C@]4(C)[C@H]3CC[C@@]21C` [MT-487, Danazol], in data set [1], the “significant modulation” value is listed as “significantly (p-value≤0.05) modulate” and the “Number (#) of genes having significantly changed expression” value was found to be 5. Also, in data set [2], the “Log2 fold changes … CYP2C19” value was −0.03 and the “Log2 fold changes … CYP3A4” value came out at 0.11.

As to `CCN1CCCC1CNC(=O)c1cc(S(N)(=O)=O)ccc1OC` (stereo not drawn) [MT-277, Sulpiride], in data set [1], the “significant modulation” value is on record as “significantly (p-value≤0.05) modulate” and the “Number (#) of genes having significantly changed expression” value came out at 8. Also, in data set [2], the “Log2 fold changes … CYP2C19” value turned out to be 0.04 and the “Log2 fold changes … CYP3A4” value is recorded as 0.

For the compound `CCc1oc2ccccc2c1C(=O)c1cc(Br)c(O)c(Br)c1` [MT-220, Benzbromarone], in data set [1], the “significant modulation” value is “significantly (p-value≤0.05) modulate” and the “Number (#) of genes having significantly changed expression” value was found to be 119. Besides, in data set [2], the “Log2 fold changes … CYP2C19” value is recorded as 0.57, the “Log2 fold changes … CYP3A4” value is 0.87 and the cytotoxicity in hepatocytes result was “cytotoxic”.

As to `CCc1nn(CCCN2CCN(c3cccc(Cl)c3)CC2)c(=O)n1CCOc1ccccc1` [MT-505, Nefazodone], in data set [1], the “significant modulation” value is on record as “significantly (p-value≤0.05) modulate” and the “Number (#) of genes having significantly changed expression” value is recorded as 18. In data set [2], the “Log2 fold changes … CYP2C19” value is listed as −0.03 and the “Log2 fold changes … CYP3A4” value is listed as 0.4.

Turning to “RPS19_2 (guide CTTGACGGTATCCACCCATT; chemistry not fully specified; listed as Homo sapiens)”, in data set [3], the “RQ, BAG1” value is listed as 1.08; the “RQ, BAX” value turned out to be 1.29; the “RQ, GATA1” value is listed as 0.87; the “RQ, GATA2” value was found to be 1.23. Further, in data set [3], the “RQ, HBB” value worked out at 0.55; the “RQ, MDM2” value is listed as 1.38; the “RQ, RPL11” value came to 1.46; the “RQ, RPS19” value is listed as 0.77. Also, in data set [3], the “RQ, p21” value is recorded as 1.73 and the “RQ, p53” value turned out to be 1.12.

In the case of `CC(C)N(CCC(C(N)=O)(c1ccccc1)c1ccccn1)C(C)C` (stereo not drawn) [MT-189, Disopyramide], in data set [1], the “significant modulation” value is “significantly (p-value≤0.05) modulate” and the “Number (#) of genes having significantly changed expression” value is 7. For the same compound, in data set [2], the “Log2 fold changes … CYP2C19” value is recorded as 0.18 and the “Log2 fold changes … CYP3A4” value is 0.03.
